Laboratory results from patent US20230102247A1, “METHODS AND COMPOSITIONS RELATING TO IONIC LIQUID ADJUVANTS” (PRESIDENT AND FELLOWS OF HARVARD COLLEGE, priority 2020, published 2023).
Structures can show the parent of a compound that is named as a salt. Where two headings read alike, the source gives them in different places.

Experiments:
[1] = cited from earlier work
[2] = system: infiltrating immune cells at the injection site; conditions: subcutaneous, 24 h
Experimental: (§1) Female Balb/C mice (6-8-week-old) were purchased from Charles River Laboratories. All experiments were performed according to the approved protocols by the Institutional Animal Care and Use Committee (IACUC) of the Faculty of Arts and Sciences (FAS), Harvard University, Cambridge.
Balb/c mice were subcutaneously injected in the back with 50 μL of saline, CoLa or alum (n=4 for all groups). […] Undigested tissue was removed by 70 μm mesh filtration. The suspension was centrifuged at 400×g for 10 min. The supernatant was removed via pipetting and 2 mL ACK lysing buffer (Thermo Fisher) was added to the pellet. After 5 min the suspensions were centrifuged again and resuspended with 2 mL FCS blocking buffer.

immune response to OVA = system: immune response to OVA
Experimental: as §1
Balb/c mice were subcutaneously injected in the back with 50 μL of OVA-saline, OVA-CoLa or alum (n=8 for all groups). A total of three injections were given on day 0, day 7 and day 14. On day 19, the mice were euthanized, blood and spleen were collected for further analysis.
Blood was centrifuged at 5000 rpm for 10 minutes at 4° C. to separate the serum from the cells. Anti-OVA IgG titer was measured as previously described^13.

OVA [3] = target: T1, OVA (Gallus gallus, UniProt P01012); conditions: 10% w/v CoLa in saline, compared to alum
Experimental: For the CoLa adjuvant formulation, 10% w/v CoLa was added unless specified. Adsorbed OVA was quantified using a plate reader (Spectramax i3™)

OVA [4] = target: T1, OVA
Experimental: OVA containing solutions (0.5 mg mL-1) and complete medium (DMEM+10% FBS) were mixed to a total volume of 500 μL and incubated at 37° C. on a tube revolver. At regular time points, the suspensions were centrifuged at 12 000×g for 15 min and the supernatant was collected for analysis. The pellet was further resuspended in 400 μL fresh release media and incubated until the next time point.

OVA [5] = target: T1, OVA; remark: listed apart in the source
Experimental: An SDS-PAGE assay was carried out to assess OVA aggregation from the OVA-CoLa or alum samples. 1 mg mL-1 OVA in 10% v/v CoLa or 2% alum were incubated for 1 h at room temperature (25° C.). OVA in saline was used as a negative control. […] Before electrophoresis, all samples were centrifuged at 5000×g for 5 min to discard any undissolved residue and the clear supernatants were adjusted to equivalent protein concentration. […] The protein bands were stained with Bio-Safe Coomassie stain (BioRad) for observation according to the manufacturer's protocol. Circular dichroism spectrophotometry (Jasco J-1500, Easton) was performed in the far-UV region (190-250 nm) to collect spectra. The three OVA (0.5 mg mL-1) containing formulations were centrifuged for 10 min at 10,000×g. The supernatant was removed via pipetting, while the soft OVA pellet at the bottom of the tube was not disturbed. The pellet was washed with 1 mL PBS and centrifuged again to remove the supernatant. The washing/centrifugation steps were repeated until no OVA pellet was formed during centrifugation. Rectangular quartz cells with a 1 mm path length (1-Q-1) were loaded with 400 μL of a sample. As a control spectrum, OVA in PBS was used. Each spectrum was the average of three scans.

T1 sequence (P01012 whole entry): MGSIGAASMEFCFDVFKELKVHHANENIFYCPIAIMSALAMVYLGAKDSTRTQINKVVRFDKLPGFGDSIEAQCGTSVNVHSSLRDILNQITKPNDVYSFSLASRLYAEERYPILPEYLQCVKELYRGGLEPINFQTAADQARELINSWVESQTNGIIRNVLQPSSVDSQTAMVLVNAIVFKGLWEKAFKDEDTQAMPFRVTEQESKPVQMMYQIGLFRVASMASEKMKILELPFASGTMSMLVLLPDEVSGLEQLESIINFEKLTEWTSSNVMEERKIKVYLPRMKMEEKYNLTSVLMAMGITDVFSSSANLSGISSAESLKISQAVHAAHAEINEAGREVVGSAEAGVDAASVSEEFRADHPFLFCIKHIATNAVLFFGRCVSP

## CCC(=O)O [Propanoic acid]
[1]; exemplary anions
  LogP: 0.33

## CC(C)C(=O)O [Isoburtyric acid]
[1]; exemplary anions
  LogP: 0.94

## O=P(O)(O)Oc1ccccc1 [Phenylphosphoric acid]
[1]; exemplary anions
  LogP: 1.05

## O=S(=O)(O)c1ccc(O)cc1 [4-hydroxybenzenesulfonic acid]
[1]; exemplary anions
  LogP: 0.2

## CCCCC(CC)COS(=O)(=O)O (stereo not drawn) [2-Ethylhexyl sulfate]
[1]
  LogP: 3.10

## O=C(O)CO [Glycolic acid]
[1]; exemplary anions
  LogP: −1.11

## CC(C)=CC(=O)O [3,3-dimethylacrylic acid]
[1]
  LogP: 1.2

## O=C(O)/C=C\C(=O)O [Maleic acid]
[1]; exemplary anions
  LogP: −0.48

## CC(O)C(=O)O.CC(O)C(=O)[O-].C[N+](C)(C)CCO [CoLa, Choline lactate (1:2)]
[2]
  infiltrating CD8 cells: no such effect
[2]; compared to the controls
  CD86 (activation marker) on infiltrating dendritic cells: significant increase
  increase in infiltration of CD4 cells: ~25%
[2]; compared to untreated and alum-treated mice
  higher infiltration of dendritic cells: 20%
Immune response to OVA; compared to alum
  Th2 response, as assessed by anti-OVA IgG: non-significant Th2 response
Immune response to OVA; injections day 0, 7, 14, analysis day 19
  Th1 response: strong Th1 response
Immune response to OVA; spleen, CoLa versus alum
  activated dendritic cells (CD80): significantly higher
Immune response to OVA; spleen, compared to alum
  increase in IFN-γ+CD4 cells: ~3 fold
Immune response to OVA; spleen, compared to both the other groups
  increase in the number of CD4 cells: 50%
Immune response to OVA; spleen, compared to the controls
  increase in the CD8 cells: 5 fold
Immune response to OVA; spleen, compared to the saline group
  increase in natural killer (NK) cells: ~1.8 fold
OVA [3]
  OVA adsorption on adjuvant: lower adsorption
OVA [4]; 10% w/v CoLa in saline, DMEM+10% FBS, 37° C.
  time over which adsorbed OVA was released: 24 h
OVA [4]; compared to alum
  release of adsorbed OVA: faster release
OVA [5]
  secondary structure of OVA (CD analysis): preserved
OVA [5]; similar to alum and saline
  molecular integrity of adsorbed OVA (SDS-PAGE): maintained the molecular integrity

## O=C(O)[C@H](O)[C@@H](O)[C@H](O)[C@H](O)CO [Gluconic acid]
[1]; exemplary anions
  LogP: −3.4

## O=C(O)CCc1ccccc1 [Hydrocinnamic acid]
[1]; exemplary anions
  LogP: 1.84

## O=C(O)c1cccc(-c2ccccc2)c1 [Biphenyl-3-carboxylic acid]
[1]; exemplary anions
  LogP: 3.5
